From US20030215462A1, “Use of UGT inhibitors to increase bioavailability” (priority 2001, published 2003)

How the values were obtained:
[1] = tested on: T1, UGT enzymes of human liver microsomes; experiment: Inhibition of 2ME2 glucuronidation (MG1, MG2) in human liver microsomes; format: biochemical; details: liver 062101, 2ME2 50 μM
T1 construct: other: liver 062101
Source text: (§1) Compounds were eluted using a binary solvent gradient system where solvent A was dilute phosphoric acid (pH 3) and solvent B was 80:20 acetonitrile-methanol. […] Detection was at 280 nm.

[2] = tested on: UGT enzymes of human liver microsomes; experiment: Inhibition of raloxifene glucuronidation (G1, G2) in human liver microsomes; format: biochemical; details: for % of control metabolism (SD, n = 3), raloxifene glucuronide G1 / % of control metabolism (SD, n = 3), raloxifene glucuronide G2: human liver microsomes 250 μg/ml, 15 min
Source text: (§2) Compounds were eluted using a binary solvent gradient system. […] Solvent B was methanol. […] Detection was at 280 nm.

UGT1A9 = target: T2, UGT1A9 (Homo sapiens, UniProt O60656); experiment: Inhibition of raloxifene glucuronidation by recombinant UGT1A9 Supersomes; details: for activity at 15 min, 25 µM / activity at 15 min, 50 µM: human, Supersomes with recombinant human UGT1A9, pH 7.5, probe raloxifene 50 μM; for Inhibition of raloxifene glucuronidation, UGT1A9, second line per inhibitor (G2): second line (G2, metabolite not given), raloxifene 50 μM, 250 μg/ml Supersomes, 1 mM UDPGA, 15 min
T2 sequence (O60656 26-530): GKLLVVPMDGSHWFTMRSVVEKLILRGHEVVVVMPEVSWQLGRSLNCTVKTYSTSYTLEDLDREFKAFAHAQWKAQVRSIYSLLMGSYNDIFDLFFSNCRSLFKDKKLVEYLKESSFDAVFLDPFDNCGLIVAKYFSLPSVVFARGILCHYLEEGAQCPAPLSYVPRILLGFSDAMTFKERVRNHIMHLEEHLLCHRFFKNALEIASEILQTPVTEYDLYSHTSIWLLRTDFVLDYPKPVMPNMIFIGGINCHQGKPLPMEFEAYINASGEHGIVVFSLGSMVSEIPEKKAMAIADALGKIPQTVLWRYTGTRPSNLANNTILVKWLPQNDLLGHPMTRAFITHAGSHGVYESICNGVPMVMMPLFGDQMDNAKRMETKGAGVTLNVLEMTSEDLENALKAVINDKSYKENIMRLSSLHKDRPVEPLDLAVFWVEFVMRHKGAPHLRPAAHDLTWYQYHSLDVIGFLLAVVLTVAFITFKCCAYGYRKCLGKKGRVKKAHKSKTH

[3] = tested on: UGT enzymes of pooled human jejunum microsomes; experiment: Inhibition of raloxifene glucuronidation (G1, G2) in pooled human jejunum microsomes; format: biochemical; details: jejunum HJ61; inhibitor 50 μM
Experimental: as §2
Standardized incubations utilized […] microsomal protein, 1 mM UDPGA and a 30 min incubation time.

UGT1A10 = target: T3, UGT1A10 (Homo sapiens, UniProt Q9HAW8); experiment: Inhibition of raloxifene glucuronidation by recombinant UGT1A10 Bacculosomes; details: human, Bacculosomes with recombinant human UGT1A10, pH 7.5, probe raloxifene 50 μM; for activity at 15 min, 25 µM: inhibitor 25 μM; for activity at 15 min, 50 µM: inhibitor 50 μM
T3 sequence (Q9HAW8 26-530): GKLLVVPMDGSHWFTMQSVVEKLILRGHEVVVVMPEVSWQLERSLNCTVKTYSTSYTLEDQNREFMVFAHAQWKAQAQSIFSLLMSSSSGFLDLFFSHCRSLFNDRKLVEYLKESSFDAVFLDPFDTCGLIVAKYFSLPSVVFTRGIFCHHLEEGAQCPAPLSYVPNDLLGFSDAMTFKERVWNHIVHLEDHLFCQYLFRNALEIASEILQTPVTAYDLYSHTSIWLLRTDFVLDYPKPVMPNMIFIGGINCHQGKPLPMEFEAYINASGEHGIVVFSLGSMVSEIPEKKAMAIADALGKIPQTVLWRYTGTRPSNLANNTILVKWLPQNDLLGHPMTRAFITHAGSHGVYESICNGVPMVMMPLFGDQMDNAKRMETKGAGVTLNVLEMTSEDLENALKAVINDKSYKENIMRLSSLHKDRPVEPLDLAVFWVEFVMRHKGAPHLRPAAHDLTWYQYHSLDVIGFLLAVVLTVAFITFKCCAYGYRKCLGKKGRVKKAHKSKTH
Experimental: Compounds were eluted using a binary solvent gradient system. Solvent A was water brought to pH 8 with NH4OH. Solvent B was methanol. Solvent flow rate was 1 ml/min and the column temperature was maintained at 50° C. Detection was at 280 nm. […] The system was then returned to the initial conditions and equilibrated for 3 min.

[4] = tested on: UGT enzymes of pooled human jejunum microsomes; experiment: Inhibition of estradiol (E2) glucuronidation in pooled human jejunum microsomes; format: biochemical; details: jejunum HJ61; E2 50 μM; inhibitor 50 μM
Source text: as §1

[5] = tested on: T4, UGT enzymes of human liver microsomes; experiment: Inhibition of labetalol glucuronidation (LG1, LG2) in human liver microsomes; format: biochemical; details: labetalol 50 μM; inhibitor 50 μM
T4 construct: residual metabolism (percentage of control), labetalol LG1; other: labetalol 50 μM; residual metabolism (percentage of control), labetalol LG1; residual metabolism (percentage of control), labetalol LG2; inhi

[6] = inhibitor 10 μM, raloxifene 50 μM
[7] = inhibitor 25 μM, raloxifene 50 μM
[8] = inhibitor 50 μM, raloxifene 50 μM
[9] = inhibitor 100 μM, raloxifene 50 μM
[10] = inhibitor 500 μM, raloxifene 50 μM
[11] = liver lot 032101, inhibitor 50 μM
[12] = liver lot 062101, inhibitor 50 μM
[13] = liver lot 083000, inhibitor 50 μM
[14] = raloxifene 50 μM, inhibitor 10 μM
[15] = raloxifene 50 μM, inhibitor 25 μM
[16] = raloxifene 50 μM, inhibitor 50 μM
[17] = raloxifene 50 μM, inhibitor 100 μM
[18] = formation of glucuronide G1, % of control metabolism, raloxifene G1, UGT1A10
[19] = formation of glucuronide G2, % of control metabolism, raloxifene G2, UGT1A10

SMILES: O=C(O[C@@H]1Cc2c(O)cc(O)cc2O[C@H]1c1cc(O)c(O)c(O)c1)c1cc(O)c(O)c(O)c1 [Gallocatechin gallate]
- residual metabolism (% of control), 2ME2 MG1 ([1]; inhibitor 25 μM): 33 (1) %
- residual metabolism (% of control), 2ME2 MG2 ([1]; inhibitor 25 μM): 73 (1) %
- residual metabolism (% of control), 2ME2 MG1 ([1]; inhibitor 50 μM): 21 (2) %
- residual metabolism (% of control), 2ME2 MG2 ([1]; inhibitor 50 μM): 61 (1) %
- residual metabolism (% of control), 2ME2 MG1 ([1]; inhibitor 100 μM): 9 (1) %
- residual metabolism (% of control), 2ME2 MG2 ([1]; inhibitor 100 μM): 36 (1) %
- % of control metabolism (SD, n = 3), raloxifene glucuronide G1 [2, 6]: 80 (6) %
- % of control metabolism (SD, n = 3), raloxifene glucuronide G1 [2, 7]: 62 (7) %
- % of control metabolism (SD, n = 3), raloxifene glucuronide G1 [2, 8]: 45 (2) %
- % of control metabolism (SD, n = 3), raloxifene glucuronide G1 [2, 9]: 20 (1) %
- % of control metabolism (SD, n = 3), raloxifene glucuronide G1 [2, 10]: 0 (0) %
- % of control metabolism (SD, n = 3), raloxifene glucuronide G2 [2, 6]: 83 (4) %
- % of control metabolism (SD, n = 3), raloxifene glucuronide G2 [2, 7]: 64 (4) %
- % of control metabolism (SD, n = 3), raloxifene glucuronide G2 [2, 8]: 47 (2) %
- % of control metabolism (SD, n = 3), raloxifene glucuronide G2 [2, 9]: 29 (1) %
- % of control metabolism (SD, n = 3), raloxifene glucuronide G2 [2, 10]: 0 (0) %
- % of control metabolism, raloxifene G1 [2, 11]: 29 (1) %
- % of control metabolism, raloxifene G2 [2, 11]: 28 (0) %
- % of control metabolism, raloxifene G1 [2, 12]: 40 (3) %
- % of control metabolism, raloxifene G2 [2, 12]: 22 (1) %
- % of control metabolism, raloxifene G1 [2, 13]: 45 (2) %
- % of control metabolism, raloxifene G2 [2, 13]: 47 (2) %
- % of control metabolism, raloxifene G1 [2, 14]: 80 (6) %
- % of control metabolism, raloxifene G2 [2, 14]: 83 (4) %
- % of control metabolism, raloxifene G1 [2, 15]: 62 (7) %
- % of control metabolism, raloxifene G2 [2, 15]: 64 (4) %
- % of control metabolism, raloxifene G1 [2, 16]: 45 (2) %
- % of control metabolism, raloxifene G2 [2, 16]: 47 (2) %
- % of control metabolism, raloxifene G1 [2, 17]: 20 (1) %
- % of control metabolism, raloxifene G2 [2, 17]: 29 (1) %
- activity at 15 min, 25 µM (UGT1A9; formation of glucuronide G1, % of control metabolism, raloxifene G1, UGT1A9, inhibitor 25 μM): 72%
- activity at 15 min, 50 µM (UGT1A9; formation of glucuronide G1, % of control metabolism, raloxifene G1, UGT1A9, inhibitor 50 μM): 47%
- activity at 15 min, 25 µM (UGT1A9; formation of glucuronide G2, % of control metabolism, raloxifene G2, UGT1A9, inhibitor 25 μM): 63%
- activity at 15 min, 50 µM (UGT1A9; formation of glucuronide G2, % of control metabolism, raloxifene G2, UGT1A9, inhibitor 50 μM): 44%
- Inhibition of raloxifene glucuronidation, UGT1A9, second line per inhibitor (G2) (UGT1A9; inhibitor 25 μM): 63 (4)
- Inhibition of raloxifene glucuronidation, UGT1A9, second line per inhibitor (G2) (UGT1A9; inhibitor 50 μM): 44 (2)
- % of control metabolism, raloxifene G1 [3]: 10 (0), 10 (0) %
- % of control metabolism, raloxifene G2 [3]: 10 (0), 10 (0) %
- activity at 15 min, 25 µM (UGT1A10; [18]): 64%
- activity at 15 min, 50 µM (UGT1A10; [18]): 49%
- activity at 15 min, 25 µM (UGT1A10; [19]): 68%
- activity at 15 min, 50 µM (UGT1A10; [19]): 48%
- residual metabolism (% of control), E2-3-β-D-glucuronide [4]: 25 (1) %
- residual metabolism (% of control), E2-17-β-D-glucuronide [4]: 39 (1) %
- residual metabolism (percentage of control), labetalol LG1 [5]: 60 (5) %
- residual metabolism (percentage of control), labetalol LG2 [5]: 55 (8) %
